Patent publication US20260108546A1 (ELI LILLY AND COMPANY, priority 2024, published 2026)
Structures can show the parent of a compound that is named as a salt.

Molecular target: T1, hGIP-R (Homo sapiens, UniProt P48546)
T1 construct: expressed in transfected cells; host or cells: HEK-293 clonal cell lines
T1 sequence (P48546 22-466): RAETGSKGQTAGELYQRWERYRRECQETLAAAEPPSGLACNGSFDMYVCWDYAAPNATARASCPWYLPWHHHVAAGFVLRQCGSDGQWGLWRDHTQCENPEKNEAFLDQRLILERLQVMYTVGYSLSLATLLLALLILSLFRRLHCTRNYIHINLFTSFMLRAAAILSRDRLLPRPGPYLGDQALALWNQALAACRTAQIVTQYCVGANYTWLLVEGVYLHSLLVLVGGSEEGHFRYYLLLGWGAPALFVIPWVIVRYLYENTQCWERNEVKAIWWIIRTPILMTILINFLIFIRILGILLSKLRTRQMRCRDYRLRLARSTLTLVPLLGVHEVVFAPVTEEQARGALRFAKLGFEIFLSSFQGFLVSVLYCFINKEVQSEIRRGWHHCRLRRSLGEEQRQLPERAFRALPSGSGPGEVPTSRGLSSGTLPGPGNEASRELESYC
Test: Functional hGIP-R Assay (cAMP formation, HTRF)
Assay type: cell-based
Settings: for Emax: cAMP efficacy, percent of maximal response to GIP(1-42)OH, 37° C., 0.1% bovine casein, arithmetic mean ± SEM; for EC50: cAMP potency, HEK-293 cells expressing hGIP-R, incubated at 37° C. in the presence of 0.1% bovine casein, geometric mean, read-out: Human GIP-R EC50, nM (SEM, n)
How it was run: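 HEK-293 cells expressing hGIP-R were given a 20-point compound series in DMEM with 0.1% casein, 250 μM IBMX, 1% DMSO, 30 min at 37 °C. cAMP was read by HTRF against a standard curve, expressed as % of human GIP (1-42) OH maximum; EC50 and Emax came from four-parameter fits.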

**Q.** Which Emax does the source give for `Cc1nc(-c2cnc3nc(C4CC4)cn3c2)ccc1[C@H]1C[C@@]12CCN([C@H](Cc1cnn(C(F)F)c1)C(=O)NC(C)(C)Cn1nc(C(F)(F)F)cc1-c1cnc(C(C)(C)OP(=O)(O)O)nc1)C2=O` [Example 196, 2-(5-(1-(2-((R)-2-((1R,3R)-1-(6-(2-Cyclopropylimidazo[1,2-a]pyrimidin-6-yl)-2-methylpyridin-3-yl)-4-oxo-5-azaspiro[2.4]heptan-5-yl)-3-(1-(difluoromethyl)-1H-pyrazol-4-yl)propanamido)-2-methylpropyl)-3-(trifluoromethyl)-1H-pyrazol-5-yl)pyrimidin-2-yl)propan-2-yl dihydrogen phosphate, ammonia salt] here?
**A.** 95.7%

**Q.** What about the EC50 of the same compound?
**A.** 0.601 nM

**Q.** `[2H]C([2H])([2H])N(C(=O)[C@H]1C[C@@H]1c1ccc(-c2cnc3nn(C)cc3c2)nc1C(F)F)[C@@H](Cc1cnn(C(F)F)c1)C(=O)NC(C)(C)Cn1nc(C(F)(F)F)cc1-c1cc(F)c(=O)n(C)c1` [Example 138, (1S,2S)-N-((S)-3-(1-(Difluoromethyl)-1H-pyrazol-4-yl)-1-((1-(5-(5-fluoro-1-methyl-6-oxo-1,6-dihydropyridin-3-yl)-3-(trifluoromethyl)-1H-pyrazol-1-yl)-2-methylpropan-2-yl)amino)-1-oxopropan-2-yl)-2-(2-(difluoromethyl)-6-(2-methyl-2H-pyrazolo[3,4-b]pyridin-5-yl)pyridin-3-yl)-N-(methyl-d3)cyclopropane-1-carboxamide] was tested. Which Emax did it give?
**A.** 52.3%

**Q.** What about the EC50 of the same compound?
**A.** 99.2 nM

**Q.** With `Cn1cc(C[C@@H](NC(=O)[C@H]2C[C@@H]2c2ccc(-c3cnc4nn(C)cc4c3)cc2)C(=O)NC(C)(C)Cn2nc(C(F)(F)F)cc2-n2nccn2)cn1` (single isomer, unassigned) [Example 13] as the compound, how does the Emax read?
**A.** 112 ± 0.275%

**Q.** And the EC50?
**A.** 49.7 nM

**Q.** With `Cn1cc(C[C@@H](NC(=O)[C@H]2C[C@@H]2c2ccc(-c3cnc4nn(C)cc4c3)cc2)C(=O)NC(C)(C)Cn2nc(C(F)(F)F)cc2-c2ccc(=O)[nH]c2)cn1` [Example 59, (1S,2S)-N-((R)-1-((2-Methyl-1-(5-(6-oxo-1,6-dihydropyridin-3-yl)-3-(trifluoromethyl)-1H-pyrazol-1-yl)propan-2-yl)amino)-3-(1-methyl-1H-pyrazol-4-yl)-1-oxopropan-2-yl)-2-(4-(2-methyl-2H-pyrazolo[3,4-b]pyridin-5-yl)phenyl) cyclopropane-1-carboxamide] as the compound, how does the Emax read?
**A.** 122 ± 2.6%

**Q.** And the EC50?
**A.** 49.1 nM

**Q.** Which Emax does the source give for `Cn1cc2cc(-c3ccc([C@H]4C[C@@]45CCN([C@H](Cc4cnn(C(F)F)c4)C(=O)NC(C)(C)Cn4nc(C(F)(F)F)cc4-c4cc(F)c(=O)n(C)c4)C5=O)c(F)c3)cnc2n1` (single isomer, unassigned; isomer 1) [Example 99] here?
**A.** 69.2 ± 0.431%

**Q.** What about the EC50 of the same compound?
**A.** 6.84 nM

**Q.** What does the source list for `CC(C)(Cn1cc(C(F)(F)F)cn1)NC(=O)[C@@H](Cc1cnc2ncccn12)NC(=O)[C@H]1C[C@@H]1c1ccc(-c2cnc3nc(C4(C)CC4)cn3c2)cc1` [Example 81, (1S,2S)-N-((R)-3-(Imidazo[1,2-a]pyrimidin-3-yl)-1-((2-methyl-1-(4-(trifluoromethyl)-1H-pyrazol-1-yl)propan-2-yl)amino)-1-oxopropan-2-yl)-2-(4-(2-(1-methylcyclopropyl)imidazo[1,2-a]pyrimidin-6-yl)phenyl)cyclopropane-1-carboxamide]?
**A.** Emax: 117 ± 0.667%; EC50: 33.1 nM

**Q.** `CNC(=O)Cn1cc(-c2cc(C(F)(F)F)nn2CC(C)(C)NC(=O)[C@@H](Cc2cnn(C(F)F)c2)N2CC[C@@]3(C[C@@H]3c3ccc(-c4cnc5nn(C)cc5c4)cc3)C2=O)cn1` [Example 127, (R)-3-(1-(Difluoromethyl)-1H-pyrazol-4-yl)-N-(2-methyl-1-(1′-(2-(methylamino)-2-oxoethyl)-5-(trifluoromethyl)-1′H,2H-[3,4′-bipyrazol]-2-yl)propan-2-yl)-2-((1R,3R)-1-(4-(2-methyl-2H-pyrazolo[3,4-b]pyridin-5-yl)phenyl)-4-oxo-5-azaspiro[2.4]heptan-5-yl)propanamide] was tested. Which Emax did it give?
**A.** 56.1 ± 4.15%

**Q.** And the EC50?
**A.** 60.1 nM

**Q.** With `Cn1cc2cc(-c3ccc([C@H]4C[C@@H]4C(=O)N[C@H](Cc4cnc5ncccn45)C(=O)NC(C)(C)Cn4nc(C(F)(F)F)cc4-c4cn[nH]n4)cc3)cnc2n1` [Example 69, (1S,2S)-N-((R)-1-((1-(5-(2H-1,2,3-Triazol-4-yl)-3-(trifluoromethyl)-1H-pyrazol-1-yl)-2-methylpropan-2-yl)amino)-3-(imidazo[1,2-a]pyrimidin-3-yl)-1-oxopropan-2-yl)-2-(4-(2-methyl-2H-pyrazolo [3,4-b]pyridin-5-yl)phenyl)cyclopropane-1-carboxamide] as the compound, how does the Emax read?
**A.** 87.8 ± 8.06%

**Q.** What about the EC50 of the same compound?
**A.** 34 nM

**Q.** Which Emax does the source give for `Cn1cc(C[C@@H](NC(=O)C2CC2c2ccc(-c3cnc4nccn4c3)cc2C(F)(F)F)C(=O)NC(C)(C)Cc2ccc(F)cc2)cn1` (single isomer, unassigned; isomer 2) [Example 29] here?
**A.** 99.4%

**Q.** What about the EC50 of the same compound?
**A.** 79.8 nM

**Q.** For `Cn1cc(C[C@@H](NC(=O)[C@H]2C[C@@H]2c2ccc(-c3cnc4nccn4c3)cc2)C(=O)NC(C)(C)Cn2nc(C(F)(F)F)cc2-c2cn[nH]n2)cn1` [Example 27, (1S,2S)-N-((R)-1-((1-(5-(2H-1,2,3-Triazol-4-yl)-3-(trifluoromethyl)-1H-pyrazol-1-yl)-2-methylpropan-2-yl)amino)-3-(1-methyl-1H-pyrazol-4-yl)-1-oxopropan-2-yl)-2-(4-(imidazo[1,2-a]pyrimidin-6-yl)phenyl) cyclopropane-1-carboxamide], which Emax is on record?
**A.** 99.3%

**Q.** What about the EC50 of the same compound?
**A.** 61.6 nM

**Q.** `CC(C)(Cn1cc(C(F)(F)F)cn1)NC(=O)[C@@H](Cc1cnc2ncccn12)NC(=O)[C@H]1C[C@@H]1c1ccc(-c2cnc3nc(C4CC4)cn3c2)cc1` [Example 76, (1S,2S)-2-(4-(2-Cyclopropylimidazo[1,2-a]pyrimidin-6-yl)phenyl)-N-((R)-3-(imidazo[1,2-a]pyrimidin-3-yl)-1-((2-methyl-1-(4-(trifluoromethyl)-1H-pyrazol-1-yl)propan-2-yl)amino)-1-oxopropan-2-yl)cyclopropane-1-carboxamide] was tested. Which Emax did it give?
**A.** 97.2 ± 7.63%

**Q.** What about the EC50 of the same compound?
**A.** 16.2 nM

**Q.** What does the source list for `Cc1cn2cc(-c3ccc([C@H]4C[C@@]45CCN([C@H](Cc4cnn(C(F)F)c4)C(=O)NC(C)(C)Cn4nc(C(F)(F)F)cc4-c4ccc(C(C)(C)O)nc4)C5=O)c(C)n3)cnc2n1` [Example 178, (R)-3-(1-(difluoromethyl)-1H-pyrazol-4-yl)-N-(1-(5-(6-(2-hydroxypropan-2-yl)pyridin-3-yl)-3-(trifluoromethyl)-1H-pyrazol-1-yl)-2-methylpropan-2-yl)-2-((1R,3R)-1-(2-methyl-6-(2-methylimidazo[1,2-a]pyrimidin-6-yl)pyridin-3-yl)-4-oxo-5-azaspiro[2.4]heptan-5-yl)propanamide]?
**A.** Emax: 39.9 ± 0.556%; EC50: 0.743 nM

**Q.** Which Emax does the source give for `CC(C)(Cn1cc(C(F)(F)F)cn1)NC(=O)[C@@H](Cc1cnc2ncccn12)NC(=O)[C@H]1C[C@@H]1c1ccc(-c2cnc3nccn3c2)cc1` [Example 47, (1S,2S)-N-((R)-3-(Imidazo[1,2-a]pyrimidin-3-yl)-1-((2-methyl-1-(4-(trifluoromethyl)-1H-pyrazol-1-yl)propan-2-yl)amino)-1-oxopropan-2-yl)-2-(4-(imidazo[1,2-a]pyrimidin-6-yl)phenyl) cyclopropane-1-carboxamide] here?
**A.** 84.6 ± 1.49%

**Q.** And the EC50?
**A.** 41.5 nM

**Q.** `Cc1cc(C2CC2C(=O)N[C@H](Cc2cnn(C)c2)C(=O)NC(C)(C)Cc2ccc(F)cc2)ccc1NC(=O)Nc1ccc(F)cc1` (single isomer, unassigned; isomer 2) [Example 50] was tested. Which Emax did it give?
**A.** 85.5 ± 2.37%

**Q.** And the EC50?
**A.** 82.3 nM
